Data on three molecules can be found in patent US20080153792A1, “Drug Identification and Treatment Method” (priority 2006, published 2008).

SMILES strings stand for the structures. Like-named read-outs stand apart in the source and are kept apart here. Where only a bound is given, the exact number is not on record here.

Data set [1] has as its system CD1 male mice, carrageenan-λ induced pleurisy. Briefly: carrageenan-λ induced lung (pleural cavity) inflammation in mice. The data set is classed as in vivo, mouse. The conditions noted are these: for number of neutrophils relative to untreated carrageenan-λ control (100%): 4 h after carrageenan; for number of neutrophils in the pleura: 0.1 mg and 0.01 mg doses s.c.
Data set [2] relates to BALB/c mice, OVA sensitized and challenged. Briefly: ovalbumin (OVA) sensitized mouse model of asthma. The class given is in vivo. The settings on record: for IL-13: s.c. once daily, dexamethasone 5 mg/kg, compound 1 mg/mouse. As for the experimental part:
BALB/c mice were sensitized by intraperitoneal injection with OVA (in alum adjuvant) on days 1, and 12. Airways were challenged with OVA on days 28 and 30 by delivery of OVA to the lung, or with saline. […] The remaining animals were divided into 6 groups (6 mice per group). Groups of the mice were treated once daily by subcutaneous injection as follows. Group 1 vehicle control (0.1% carboxymethyl cellulose, 0.9% saline, 2% tween 80, 0.05% phenol). Group 2 dexamethazone (5 mg/kg). Group 3 3α,16α,17α-trihydroxyandrostane (1 mg/mouse). Three animals in groups 1-3 were sacrificed on day 35 at 1 hr after final treatment and the remaining 3 animals in groups 1-3 were sacrificed on day 38.

Data set [3] is described as follows: metabolic stability in liver microsomes, species not stated. The data set is classed as in vitro ADME. The settings on record: compared with androst-5-ene-3β,17β-diol reference compound. How it is done:
The protocol was performed as follows. […] (2) Set up samples as follows. […] (4) The internal standard/acetonitrile solution.
Background: Liver microsomes are a subcellular fraction often used to study metabolism.

Data set [4] has as its system γ-interferon production by human whole blood. In words: γ-interferon production in human whole blood exposed to LPS. The class given is cell-based. The settings on record: LPS 24 hours; 16α-bromoepiandrosterone at 100 ng/mL. How it is done:
Anti-inflammation activity in human cells in vitro. […] The amount of γ-interferon was measured in the growth medium when the cells had been incubated in the presence of LPS for 24 hours.

The test system of data set [5] is mice, LPS induced lung injury. Briefly: lung injury by sublethal LPS to trachea and lungs, BAL cell count. The class given is in vivo, mouse. The settings on record: oral gavage 24 h before and 1 h after 100 μg LPS; 48 hours. As for the experimental part:
In another assay, the capacity of 16α-bromoepiandrosterone and 3β,16α-dihydroxy-17-oxoandrostane to protect against lung injury induced by exposure to a sublethal amount of LPS in mice was shown. In this assay, the compounds, sterile saline (negative control) or vehicle (vehicle control) were administered to groups of 5 mice by oral gavage at 24 hours before and 1 hour after administration of 100 μg of LPS to the trachea and lungs of animals under light anesthesia. At 48 hours the animals were sacrificed and samples were obtained from the lungs of the animals by bronchiolar alveolar lavage (BAL). The numbers of cells in the BAL fluid were counted, with high numbers of cells showing lung inflammation and damage. In this assay, cells that mediate inflammation and lung damage infiltrate into the lungs in response to the presence of the LPS. In the negative control and vehicle control groups, the BAL fluid contained about 6×10^7 cells/mL. […] Other compounds, e.g., 17α-ethynylandrost-5-ene-3β,7β,17β-triol or 17β-aminoandrost-5-ene-3β-ol, can be characterized in a similar manner.

In data set [6] the test system is human peripheral blood mononuclear cells (PBMC). In words: human mixed lymphocyte reaction (MLR). The data set is classed as cell-based. The conditions noted are these: either 300 nM or 30 nM; 6 days; p>0.05. How it is done: Human mixed lymphocyte reaction (MLR). The capacity of 3β,16α-dihydroxy-17-oxoandrostane, 3β,17β-dihydroxy-16-oxoandrostane, 17α-ethynylandrost-5-ene-3β,7β,17β-triol, and 17β-aminoandrost-5-ene-3β-ol to affect antigen specific stimulation in which human T lymphocytes respond to a specific foreign antigen (major histocompatibility complex).
Blood samples were obtained from 3 (2 males, […]) fasting, healthy human volunteers of 23-31 years old. […] The subjects were bled between […] to limit possible fluctuations in the circulating levels of hormones or cytokines that could have influenced the in vitro responses of their lymphocytes. Peripheral blood mononuclear cells (PBMC) were isolated by centrifugation on Ficoll-Hypaque (density 1.077, Biochrom AG, Berlin, Germany) gradients and resuspended in culture medium (RPMI 1640 supplemented with 2 mM L-glutamine, penicillin (100 U/mL) and streptomycin ([…]) (Invitrogen s.rl., Milan, Italy). Autologous (responder) inactivated plasma was used at 10%. Five hundred thousand responder PBMC (PBMCr) and 500,000 allogeneic irradiated (30 Gy) stimulator PBMC (PBMCs) were mixed at a ratio of 1:1 in 200 μL medium and cultured for 6 days in flat bottom 96 well plates (Nunc, Roskilde, Denmark) at a concentration of 300 nM or 30 nM for each of the 4 compounds. The compounds were dissolved in ethanol and then diluted to the desired concentration with culture medium leading to a final solution containing 0.01% of ethanol. This vehicle was used as control. Controls also included PBMCr and PBMCs cultured separately. During the last 8 hours of the culture period the PBMC were pulsed with 1 μCi/well [^3H] thymidine (Amersham, Milan, Italy). The cells were then harvested and radioactivity incorporation measured with a beta cell counter. The mean cpm of quadruplicate wells was calculated. Proliferation of T cells was expressed as a stimulation index: SI=cpm (PMBCs xPBMCr)/cpm (PBMCr)+cpm (PBMCs). Statistical analysis was performed using the Student's t test. The cpm obtained from quadruplicate of each test compound were compared to proliferative responses obtained in control PBMCr and PBMCs cultured in the presence of the vehicle. Differences were considered significant at p<0.05.

In data set [7] the test system is NF-κB. Briefly: NF-κB-bla THP-1 β-lactamase reporter assay. The settings on record: Homo sapiens. The class given is cell-based, human.
For data set [8], the system named is mice given a lethal amount of LPS. Briefly: lethal shock protocol, lethal amount of bacterial LPS. The conditions noted are these: second assay; oral gavage 24 h before and 1 h after LPS. The data set is classed as in vivo, mouse. As for the experimental part:
Treatment of lethal inflammation/shock. Two compounds, 16α-bromoepiandrosterone (3β-hydroxy-16α-bromoandrostane-17-one) and 3β,16α-dihydroxy-17-oxoandrostane, were used in a lethal shock protocol. In one protocol, 3 mg of 16α-bromoepiandrosterone was administered to one group of animals by oral gavage, while another group received 3 mg of 16α-bromoepiandrosterone by subcutaneous injection. A group of control animals received a placebo control. In this protocol, the 16α-bromoepiandrosterone was administered to mice at 24 hours before and at 1 hour after administration of a lethal amount of bacterial lipopolysaccharide (LPS). By the end of the observation period, 72 hours after LPS administration, none of the vehicle treated placebo control animals had survived, while 65% of animals that received 16α-bromoepiandrosterone by oral administration survived. 50% of the animals that received 16α-bromoepiandrosterone by subcutaneous injection survived. Animals that survived for 72 hours all recovered from the LPS exposure.
In a second assay, 16α-bromoepiandrosterone or 3β,16α-dihydroxy-17-oxoandrostane was administered to mice by oral gavage at 24 hours before and 1 hour after administration of a lethal amount of LPS. A vehicle treated group of animals was used as the placebo control.

Data set [9] concerns bone marrow-derived mast cells (BMMC). In words: mast cell stimulus-coupled degranulation (glucuronidase release). The class given is cell-based, mouse. How it is done: In another protocol, a population of mast cells was cultivated from murine bone marrow as follows. Briefly, bone marrows from Balb/C mice were flushed from the femur using PBS and a 27 g needle. The cells were cultured in a mixture of ⅔ RPMI-1640 with 19% FBS and cells that secreted IL-3. The bone marrow cells were allowed to differentiate for 18-25 days in the IL-3-containing mixture before being used for experiments. Bone marrow cells cultured in this manner have a phenotype similar to mucosal mast cells and are referred to as bone marrow-derived mast cells (BMMC).
The homogeneity of the in vitro propagated mast cells was checked by conventional flow cytometry techniques and staining for cell-type specific markers. Between days 14 and 21 of propagation, mature mast cells were harvested and prepared for the test cultures. The objective was to assess of the effect of compounds such as dehydroepiandrosterone on mast cell stimulus-coupled degranulation. Prepared mast cells were dispensed into test culture wells at a density of 1×10^7 cells/mL. In control cultures, mast cells were induced to degranulate after cross linking of IgE receptors with IgE antigen-antibody complexes. […] There was no detectable degranulation of mast cells as measured by release of […] from cytosolic storage granules of the cells in the absence of the stimulus. […]

[10] abbreviates: 0.001 mg s.c. 24 h and 1 h before carrageenan-λ.
Where [11] appears, read: 0.01 mg s.c. 24 h and 1 h before carrageenan-λ.
Setting [12] is: 0.1 mg s.c. 24 h and 1 h before carrageenan-λ.

As for `C[C@]12CC[C@H]3[C@@H](CCC4C[C@H](O)CC[C@@]43C)[C@@H]1C[C@@H](O)[C@H]2O` (stereo partly drawn) [3α,16α,17α-trihydroxyandrostane], the “number of neutrophils relative to untreated carrageenan-λ control (100%)” value in data set [1] (setting [10]) is reported as 103%; in data set [1] (setting [11]) it was 45%; in data set [1] (setting [12]), 30%. For the same molecule, the “number of neutrophils in the pleura” value in data set [1] is reported as “significant reduction”. Also, the IL-13 in data set [2] (day 35) was found to be 195 pg/mL; in data set [2] (day 38), 210 pg/mL. In addition, the “IL-5 in lung tissue” value in data set [2] (day 38) was 90 pg/mL. Further, the “metabolism by microsomes” value in data set [3] is reported as “metabolized by microsomes at a rate similar to the androst-5-ene-3β,17β-diol reference compound”.
The term IC50 denotes the midpoint of a concentration-inhibition curve. `C[C@]12CC[C@H](O)CC1CC[C@@H]1[C@@H]2CC[C@]2(C)C(=O)[C@H](O)C[C@@H]12` (stereo partly drawn) [3β,16α-dihydroxy-17-oxoandrostane]: the “production of γ-interferon” value in data set [4] is recorded as “Reduced production”. Also, in data set [1] (0.001 mg dose s.c.), the “neutrophils in the pleura / pleural exudate” value was “inactive”. Also, the results for the “number of neutrophils relative to untreated carrageenan-λ control (100%)” value in data set [1] (setting [10]), in [1] (setting [11]) and in data set [1] (setting [12]) were 97%, 73% and 73%, respectively. Further, the “number of neutrophils in the pleura” value in data set [1] is recorded as “significant reduction”. The “volume of pleural exudate” value in data set [1] (0.1 mg dose s.c.) is “significantly reduced”. Besides, the “potency compared with polyclonal anti-TNF-α antibody control” value in data set [1] (s.c.) was “less potent”. In addition, the “cell counts in the BAL fluid” value in data set [5] is recorded as “about 4.4×10^7 cells/mL”. Also, the “immune suppression in the MLR” value in [6] was “not appreciably immune suppressive”. In addition, in data set [7] (THP-1, read-out: IC50 for inhibition of NF-κB activation, after LPS stimulation, 50% of the maximum inhibition the compound can induce, averages of 2-4 assays), the IC50 is greater than 10 µM. Also, the “survival at 72 hours” value in data set [8] is 50%. Also, the “metabolism by microsomes” value in data set [3] is “metabolized by microsomes at a rate similar to the androst-5-ene-3β,17β-diol reference compound”.
In general, inhibition refers to the drop in the measured response relative to a control, in per cent. Read a high inhibition as strong suppression. `C[C@]12CC[C@H](O)CC1=CC[C@@H]1[C@@H]2CC[C@]2(C)C(=O)CC[C@@H]12` [dehydroepiandrosterone] showed an inhibition at 100 µM in [9] (Mus musculus, BMMC, 100 μM, 5 to 10 minutes before activation with anti-IgE antigen-antibody complexes) of roughly 70%. For the same molecule, the “degranulation by compound alone” value in [9] (no stimulus) is reported as “no measurable degranulation”. In addition, in [7] (THP-1, read-out: IC50, this protocol), the IC50 is greater than 10 µM.
